According to patent US20200199579A1, “Rapid Display Method in Translational Synthesis of Peptide” (PeptiDream Inc., priority 2009, published 2020):

Key:
[1] = molecular target: T1, Human tumor necrosis factor-alpha (TNF-α) (Homo sapiens, UniProt P01375); assay: Yield of peptide-mRNA complexes presenting TNF-α-DW, recovered with biotinylated TNF-α on streptavidin beads and quantified by real-time PCR; conditions: peptide aptamer TNF-α-DW
T1 construct: made in house; host or cells: E. coli (co-expressed with biotin ligase BirA)
T1 sequence (P01375 with tags, fused parts or gaps): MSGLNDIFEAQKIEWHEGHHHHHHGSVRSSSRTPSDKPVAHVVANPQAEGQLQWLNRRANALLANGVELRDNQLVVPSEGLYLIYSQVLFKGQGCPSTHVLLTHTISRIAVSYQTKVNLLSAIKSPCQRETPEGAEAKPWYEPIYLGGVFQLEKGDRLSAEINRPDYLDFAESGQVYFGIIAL
Description: In the case where an mRNA is preliminarily prepared by transcription reaction and then translated into a peptide and the resulting peptide is fused to a linker, a peptide-mRNA complex was prepared by the following procedure. First, 4 mM sodium acetate, pH 5.0 and mRNA were mixed in 1:3, and the mixture was heated on a thermoblock at 95° C. for 1 minute and then allowed to stand at room temperature for 5 min. A 25 μM linker solution dissolved in 1 mM sodium acetate was added and the mixture was allowed to stand for 10 minutes to form an mRNA-linker complex. To this were added the other components of the translation system and the mixture was incubated in a constant-temperature water bath (NT-202D, Nissin Scientific Corporation) at 37° C. for 30 minutes, then at room temperature for 12 min, and 0.1 M EDTA (ethylenediaminetetraacetic acid, molecular biology grade, NACALAI TESQUE, INC.) adjusted to pH 7.5 was added at a final concentration of 20 mM, and the mixture was further incubated in the constant-temperature water bath at 37° C. for 30 minutes.
In the case where a cDNA is added to a reaction solution and transcription, translation and fusion to a linker are performed in this reaction solution, a peptide-mRNA complex was prepared by the following procedure. […]

TNF-α = molecular target: T2, TNF-α (Homo sapiens, UniProt P01375); assay: Verification of mapping: recovery from a 100:1 EMP1SS / TNF-α-DW mixture by TNF-α pull-down, PCR and gel electrophoresis; type: binding; conditions: an21-Phe linker; mRNA or cDNA input; FIG. 6
T2 construct: made in house; host or cells: E. coli (co-expressed with biotin ligase BirA)
T2 sequence (P01375 with tags, fused parts or gaps): as above
Description: This mixture was used to perform experiments similar to those described above, and the recovered DNA was amplified by PCR under the following conditions. That is, 20 μL of a reaction solution containing Taq polymerase and a test sample solution in PCR (taq-) buffer was prepared and reacted by temperature cycling of 30 cycles of {94° C. 40 sec, 61° C. 40 sec, 72° C. 40 sec} (with a slope of 0.5° C./sec from 61° C. to 72° C.) using a thermal cycler. 2.5 μL of the reaction product solution was separated by electrophoresis using a gel consisting of TAE (40 mM Tris-acetate, 1 mM EDTA) and 3% agarose (low electroendosmosis, NACALAI TESQUE, INC.), and electrophoretograms were obtained under a transilluminator after staining with ethidium bromide.
A band derived from the mRNA encoding TNF-α-DW is observed at the position of about 90 bp, while a band derived from the mRNA encoding the control EMP1SS is observed at the position of about 150 bp. When the an21-ACCA linker containing no peptidyl acceptor was used, only a band derived from the mRNA of EMP1SS was observed, reflecting the molar ratio of the two types of cDNA in the initial mixture.

Row | Substance | yield of peptide-mRNA complexes ([1]; cDNA added to the reaction solution (one-pot transcription/translation), FIG. 5) [%] | yield of peptide-mRNA complexes ([1]; mRNA added to the translation reaction solution, FIG. 4) [%] | binding of the presented peptide to the target protein (TNF-α)
1 | 5′-CCCGCCTCCCGCCCCCCGTCC-[SPC18]5-A*-C*-C*-A*-3′ [an21-ACCA] | 0.007 | 0.015 | –
2 | XAAGGTYSSHFGPLTWVSKPQGGAA, wherein X is Ac-D-Trp [EMP1SS, reference compound] | – | – | does not bind to the target
3 | XQRLHCLYLKH (X: Ac-D-Trp) [TNF-α-DW] | – | – | binds to the target protein
